Measured values from PubChem BioAssay AID206 (DTP/NCI, 2004).
Values joined by “and” are separate entries in the source; they are usually repeats but may differ in a detail not shown here. Identical values can stand only once. Records with an inconclusive call do not appear. Starred links: 1 amine or outer side, 2 acyl side, 3 side chain; linkers in the order of their positions; H or OH if unused. Positions of bridges follow the written chain, without caps; N, C: chain ends. Non-standard residues stand in square brackets, D forms with d. Residues, ends and D or L forms follow the SMILES beside them. Chains are numbered I, II in the order given. *: point of attachment. Actinocin(1to9) = Cc1c2oc3c(C)ccc(C(=O)[*:2])c3nc-2c(C(=O)[*:1])c(N)c1=O; X2 = CCC(=O)CC1CC(C)CC(C(=O)[*:2])N1[*:1]; NMeV = CN[CH](C(=O)O)C(C)C; X1 = CCCCCCCCC(C)C(=O)*; Aze = O=C(O)[CH]1CCN1; Aib = CC(C)(N)C(=O)O; X3 = CC(CN(C)CCO)N*; Sar = CNCC(=O)O

System: nude mice, HT29 intrarenal xenograft, tumor weight T/C
Experiment: NCI In Vivo Anticancer Drug Screen. Data for tumor model HT29;CX-1 Human Adenocarcinoma (MER+) (intrarenal inoculation) in NU/NU Swiss (nude) mice
Details: endpoint: mean tumor weight change, higher = larger tumour
Procedure, shortened: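 Readout: treated/vehicle-control ratio of the measured endpoint (tumor size or survival) in transplanted-tumor mice.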

[1] = dose: 150.0 mg/kg/injection, schedule: Q04DX004 (sc), vehicle: Klucel (hydroxypropylcellulose) (HPC)
[2] = dose: 300.0 mg/kg/injection, schedule: Q04DX004 (sc), vehicle: Klucel (hydroxypropylcellulose) (HPC)
[3] = dose: 37.5 mg/kg/injection, schedule: Q04DX004 (sc), vehicle: saline
[4] = dose: 75.0 mg/kg/injection, schedule: Q04DX004 (sc), vehicle: saline
[5] = dose: 3.75 mg/kg/injection, schedule: Q04DX004 (sc), vehicle: Klucel (hydroxypropylcellulose) (HPC)
[6] = dose: 150.0 mg/kg/injection, schedule: Q04DX004 (sc), vehicle: saline with Tween-80
[7] = dose: 300.0 mg/kg/injection, schedule: Q04DX004 (sc), vehicle: saline with Tween-80
[8] = dose: 600.0 mg/kg/injection, schedule: Q04DX004 (sc), vehicle: saline with Tween-80
[9] = dose: 1200.0 mg/kg/injection, schedule: Q04DX004 (sc), vehicle: saline with Tween-80

## CC[C@@]1(O)C[C@H](OC2CC(N(C)C)C(OC3CC(O)C(OC4CCC(=O)C(C)O4)C(C)O3)C(C)O2)c2c(cc3c(c2O)C(=O)c2c(O)cccc2C3=O)[C@H]1C(=O)OC (stereo not given in full)
dose: 0.5 mg/kg/injection, schedule: Q01DX010 (ip), vehicle: water
  T/C: 35 % of control
dose: 2.0 mg/kg/injection, schedule: Q04DX004 (ip), vehicle: water
  T/C: 114 % of control
dose: 4.0 mg/kg/injection, schedule: Q04DX004 (ip), vehicle: water
  T/C: 61 % of control
dose: 4.0 mg/kg/injection, schedule: Q04DX004 (sc), vehicle: water
  T/C: 25 % of control
dose: 8.0 mg/kg/injection, schedule: Q04DX004 (ip), vehicle: water
  T/C: 37 % of control
dose: 8.0 mg/kg/injection, schedule: Q04DX004 (sc), vehicle: water
  T/C: 4 % of control

## CCCCCCCCCCCCCCCCCCCCCC(=O)Nc1ccn(C2OC(CO)C(O)C2O)c(=O)n1 (stereo not given)
dose: 225.0 mg/kg/injection, schedule: Q04DX004 (sc), vehicle: saline with Tween-80
  T/C: 65 % of control
dose: 450.0 mg/kg/injection, schedule: Q04DX004 (sc), vehicle: saline with Tween-80
  T/C: 88 % of control
dose: 900.0 mg/kg/injection, schedule: Q04DX004 (sc), vehicle: saline with Tween-80
  T/C: 64 % of control
dose: 1800.0 mg/kg/injection, schedule: Q04DX004 (sc), vehicle: saline with Tween-80
  T/C: 72 % of control

## Cc1cc(N2C(=O)CCSC2=S)ccc1Cl
dose: 75.0 mg/kg/injection, schedule: Q04DX004 (sc), vehicle: Klucel (hydroxypropylcellulose) (HPC)
  T/C: 37 % of control
[1]
  T/C: 55 % of control
[2]
  T/C: 30 % of control

## O=C(O)C(O)C(O)C1[O][Sb][O]C1C(=O)O (stereo not given)
[3]
  T/C: 100 % of control
[4]
  T/C: 73 % of control
dose: 150.0 mg/kg/injection, schedule: Q04DX004 (sc), vehicle: saline
  T/C: 93 % of control

## Cc1c2oc3c(C)ccc(C(=O)NC4C(=O)NC(C(C)C)C(=O)N5CCCC5C(=O)N(C)CC(=O)N(C)C(C(C)C)C(=O)OC4C)c3nc-2c(C(=O)NC2C(=O)NC(C(C)C)C(=O)N3CCC3C(=O)N(C)CC(=O)N(C)C(C(C)C)C(=O)OC2C)c(N)c1=O (stereo not given) (I: TV[Aze][Sar][NMeV] / II: TVP[Sar][NMeV]; ester I:1-I:C, II:1-II:C; linker I:N-II:N via Actinocin(1to9); configuration not given here)
dose: 0.5 mg/kg/injection, schedule: Q04DX004 (sc), vehicle: saline + alcohol
  T/C: 59 % of control
dose: 1.0 mg/kg/injection, schedule: Q04DX004 (sc), vehicle: saline + alcohol
  T/C: 30 % of control

## CC1C=NNC1=O (stereo not given)
dose: 200.0 mg/kg/injection, schedule: Q01DX010 (sc), vehicle: saline with Tween-80
  T/C: 91 % of control
dose: 400.0 mg/kg/injection, schedule: Q01DX010 (sc), vehicle: saline with Tween-80
  T/C: 64 % of control
dose: 800.0 mg/kg/injection, schedule: Q01DX010 (sc), vehicle: saline with Tween-80
  T/C: 105 % of control

## Nc1nc(/C=C(/O)c2ccccc2)c2ncn(C3OC(CO)C(O)C3O)c2n1 (stereo not given)
dose: 50.0 mg/kg/injection, schedule: Q04DX004 (sc), vehicle: distilled water + Tween-80
  T/C: 52 % of control
dose: 100.0 mg/kg/injection, schedule: Q04DX004 (sc), vehicle: distilled water + Tween-80
  T/C: 70 % of control
dose: 200.0 mg/kg/injection, schedule: Q04DX004 (sc), vehicle: distilled water + Tween-80
  T/C: 155 % of control
dose: 400.0 mg/kg/injection, schedule: Q04DX004 (sc), vehicle: distilled water + Tween-80
  T/C: 80 % of control

## O=C1N[C@@H]([C@H]2CC[C@H](Cl)CN2)C(=O)N[C@H]1[C@H]1CC[C@H](Cl)CN1
dose: 0.16 mg/kg/injection, schedule: Q01DX010 (sc), vehicle: water
  T/C: 65 % of control and 70 % of control and 74 % of control
dose: 0.31 mg/kg/injection, schedule: Q01DX010 (sc), vehicle: water
  T/C: 20 % of control

## O=C(O)CSc1nc(-c2ccccc2)c(-c2ccccc2)n1-c1ccccn1
dose: 250.0 mg/kg/injection, schedule: Q04DX004 (sc), vehicle: water
  T/C: 55 % of control

## COC1CC(CC2CCC(C)C(C(C)C(=O)O)O2)OC2(OC(C)(C3CCC(C)(C4OC(C5OC(O)(CO)C(C)CC5C)CC4C)O3)CC2C)C1C (stereo not given)
[5]
  T/C: 34 % of control
dose: 7.5 mg/kg/injection, schedule: Q04DX004 (sc), vehicle: Klucel (hydroxypropylcellulose) (HPC)
  T/C: 107 % of control

## NC(=S)N/N=C/c1ccc(OC(=O)COc2ccccc2)cn1
[6]
  T/C: 102 % of control
[7]
  T/C: 94 % of control
[8]
  T/C: 155 % of control
[9]
  T/C: 38 % of control

## C[C@]12CC[C@@H]3c4ccc(O)cc4CC[C@H]3[C@@H]1CC[C@@H]2O
[2]
  T/C: 54 % of control
dose: 600.0 mg/kg/injection, schedule: Q04DX004 (sc), vehicle: Klucel (hydroxypropylcellulose) (HPC)
  T/C: 75 % of control

## COc1ccc2[nH]c3c(c2c1)CCNC3CC(C)CCC=C(C)C (stereo not given)
dose: 37.5 mg/kg/injection, schedule: Q04DX004 (sc), vehicle: Klucel (hydroxypropylcellulose) (HPC)
  T/C: 47 % of control
[1]
  T/C: 62 % of control
[2]
  T/C: 55 % of control

## CN(C)C(=O)c1cccc(COc2ccc(N3C(N)=NC(N)=NC3(C)C)cc2Cl)c1
dose: 12.5 mg/kg/injection, schedule: Q01DX010 (sc), vehicle: water
  T/C: 82 % of control

## O=[N+]([O-])/C=C\c1ccc2c(c1)OCO2
dose: 100.0 mg/kg/injection, schedule: Q01DX010 (sc), vehicle: Klucel (hydroxypropylcellulose) (HPC)
  T/C: 55 % of control
dose: 400.0 mg/kg/injection, schedule: Q01DX010 (sc), vehicle: Klucel (hydroxypropylcellulose) (HPC)
  T/C: 163 % of control
dose: 800.0 mg/kg/injection, schedule: Q01DX010 (sc), vehicle: Klucel (hydroxypropylcellulose) (HPC)
  T/C: 77 % of control

## C[C@H]1C[C@@H]2[C@H]([C@@H](O)C[C@@]3(C)[C@H]2CC[C@]3(O)C(=O)CO)[C@@]2(C)C=CC(=O)C=C12
dose: 200.0 mg/kg/injection, schedule: Q04DX004 (sc), vehicle: Klucel (hydroxypropylcellulose) (HPC)
  T/C: 69 % of control

## COc1cc(NCCCCCCCNC(C)C)c2nccc(C)c2c1
dose: 18.7 mg/kg/injection, schedule: Q04DX004 (sc), vehicle: saline
  T/C: 56 % of control
[3]
  T/C: 85 % of control
[4]
  T/C: 71 % of control

## CC(Cc1ccc(O)c(O)c1)C(C)Cc1ccc(O)c(O)c1 (stereo not given)
dose: 600.0 mg/kg/injection, schedule: Q04DX004 (sc), vehicle: saline + alcohol
  T/C: 68 % of control
dose: 900.0 mg/kg/injection, schedule: Q04DX004 (sc), vehicle: saline + alcohol
  T/C: 102 % of control
dose: 1800.0 mg/kg/injection, schedule: Q04DX004 (sc), vehicle: saline + alcohol
  T/C: 97 % of control

## CCCCCCCCC(C)C(=O)N1CCCC1C(=O)N1C(CC(=O)CC)CC(C)CC1C(=O)NC(C)C(=O)NC(C)(C)C(=O)NC(C)(C)C(=O)NC(C(=O)NC(C)C(=O)NC(C)(C)C(=O)NC(C)(C)C(=O)NC(C)CN(C)CCO)C(C)CC (stereo not given) (X1-P[X2]A[Aib][Aib]IA[Aib][Aib]-X3; configuration not given here)
dose: 1.88 mg/kg/injection, schedule: Q04DX004 (sc), vehicle: Klucel (hydroxypropylcellulose) (HPC)
  T/C: 94 % of control
[5]
  T/C: 59 % of control and 67 % of control

## Cc1oc2c(C)c3oc(=O)cc(C)c3cc2c1CCl
[6]
  T/C: 107 % of control
[7]
  T/C: 71 % of control
[8]
  T/C: 114 % of control

## BrC1CC(Br)c2c1c1c(c3c2C(Br)CC3Br)C(Br)CC1Br (stereo not given)
dose: 225.0 mg/kg/injection, schedule: Q04DX004 (sc), vehicle: water
  T/C: 76 % of control
dose: 300.0 mg/kg/injection, schedule: Q04DX004 (sc), vehicle: water
  T/C: 84 % of control
dose: 450.0 mg/kg/injection, schedule: Q04DX004 (sc), vehicle: water
  T/C: 157 % of control
dose: 900.0 mg/kg/injection, schedule: Q04DX004 (sc), vehicle: water
  T/C: 158 % of control
dose: 1200.0 mg/kg/injection, schedule: Q04DX004 (sc), vehicle: water
  T/C: 116 % of control
dose: 1800.0 mg/kg/injection, schedule: Q04DX004 (sc), vehicle: water
  T/C: 22 % of control

## C=C/C(C)=C/[C@H](C)C(=O)C[C@H](O)CC1CC(=O)NC(=O)C1
[6]
  T/C: 91 % of control
[7]
  T/C: 100 % of control
[8]
  T/C: 67 % of control
[9]
  T/C: 63 % of control

## CS(=O)(=O)OCCCCOS(C)(=O)=O
dose: 6.25 mg/kg/injection, schedule: Q01DX010 (sc), vehicle: saline with Tween-80
  T/C: 121 % of control
dose: 25.0 mg/kg/injection, schedule: Q01DX010 (sc), vehicle: saline with Tween-80
  T/C: 238 % of control

## CCOC1=Cc2c(oc3c(C(C)(C)C)cc(OCC)cc23)OC(C(C)(C)C)=C1
dose: 37.5 mg/kg/injection, schedule: Q04DX004 (sc), vehicle: saline with Tween-80
  T/C: 79 % of control
dose: 75.0 mg/kg/injection, schedule: Q04DX004 (sc), vehicle: saline with Tween-80
  T/C: 87 % of control
[6]
  T/C: 256 % of control
